Reference: patent US20050070554A1, “Substituted heterocyclic compounds and methods of use” (Amgen Inc., priority 2003, published 2005)
Where two headings read alike, the source gives them in different places.

Molecular target: T1, LCK (Homo sapiens, UniProt P06239)
T1 construct: LCK KD GST (225-509); GST
Assay: LCK-Homogeneous Time Resolved Fluorescent (HTRF) Kinase Assay
Format: biochemical
Procedure, shortened: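 LCK phosphorylates biotinylated Gastrin peptide in the presence of ATP for 90 min in 50 mM HEPES pH 7.5, 50 mM NaCl, 20 mM MgCl, 5 mM MnCl, 2 mM DTT, 0.05% BSA. Reaction stopped with EDTA-containing detection reagent, then equilibrated 30 min before HTRF read.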

[1] = read-out: activity in the LCK-HTRF Kinase Assay

T1 sequence (P06239 225-509): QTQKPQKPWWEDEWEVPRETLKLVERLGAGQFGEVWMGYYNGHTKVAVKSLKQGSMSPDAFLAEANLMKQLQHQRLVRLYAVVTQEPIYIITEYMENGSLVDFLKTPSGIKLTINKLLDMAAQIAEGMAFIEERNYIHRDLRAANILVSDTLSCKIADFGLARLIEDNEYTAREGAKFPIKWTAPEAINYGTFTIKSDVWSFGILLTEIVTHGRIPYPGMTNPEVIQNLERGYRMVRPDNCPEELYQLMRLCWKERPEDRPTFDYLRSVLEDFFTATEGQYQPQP

IC50 [nM]	IC50 [1] [nM]	SMILES
< 1000	–	COc1ccc(Cl)cc1-n1c(=O)c2cnc(Nc3ccc(N4CCN(C)CC4)cc3)nc2n2c3ccccc3nc12 [No. 76, 6-(5-chloro-2-(methyloxy)phenyl)-2-((4-(4-methyl-1-piperazinyl)phenyl)amino)pyrimido[5′,4′:5,6]-pyrimido[1,2-a]benzimidazol-5(6H)-one]
< 1000	–	CN1CCN(c2ccc(Nc3ncc4c(=O)n(-c5c(Cl)cc(Cl)cc5Cl)c5nc6ccccc6n5c4n3)cc2)CC1 [No. 77, 2-((4-(4-methyl-1-piperazinyl)phenyl)amino)-6-(2,4,6-trichlorophenyl)pyrimido[5′,4′:5,6]-pyrimido[1,2-a]benzimidazol-5(6H)-one]
< 1000	–	Cc1ccc(-n2c(=O)c3cnc(Nc4ccc(N5CCN(C)CC5)cc4)nc3n3c4ccccc4nc23)cc1 [No. 78, 6-(4-methylphenyl)-2-((4-(4-methyl-1-piperazinyl)-phenyl)amino)pyrimido[5′,4′:5,6]pyrimido[1,2-a]-benzimidazol-5(6H)-one]
–	< 1000	CN1CCN(c2ccc(Nc3ncc4c(=O)n(-c5ccccc5F)c5nc6ccccc6n5c4n3)cc2)CC1 [No. 79, 6-(2-fluorophenyl)-2-((4-(4-methyl-1-piperazinyl)-phenyl)amino)pyrimido[5′,4′:5,6]pyrimido[1,2-a]-benzimidazol-5(6H)-one]
< 1000	–	Cc1cccc(-n2c(=O)c3cnc(Nc4ccc(N5CCN(C)CC5)cc4)nc3n3c4ccccc4nc23)c1 [No. 80, 6-(3-methylphenyl)-2-((4-(4-methyl-1-piperazinyl)-phenyl)amino)pyrimido[5′,4′:5,6]pyrimido[1,2-a]-benzimidazol-5(6H)-one]
< 1000	–	COc1cccc(-n2c(=O)c3cnc(Nc4ccc(N5CCN(C)CC5)cc4)nc3n3c4ccccc4nc23)c1 [No. 81, 6-(3-(methyloxy)phenyl)-2-((4-(4-methyl-1-piperazinyl)phenyl)amino)pyrimido[5′,4′:5,6]-pyrimido[1,2-a]benzimidazol-5(6H)-one]
–	< 1000	CN1CCN(c2ccc(Nc3ncc4c(=O)n(-c5cccc(F)c5)c5nc6ccccc6n5c4n3)cc2)CC1 [No. 83, 6-(3-fluorophenyl)-2-((4-(4-methyl-1-piperazinyl)-phenyl)amino)pyrimido[5′,4′:5,6]pyrimido[1,2-a]-benzimidazol-5(6H)-one]
–	< 1000	CN1CCN(c2ccc(Nc3ncc4c(=O)n(-c5ccc(F)cc5)c5nc6ccccc6n5c4n3)cc2)CC1 [No. 84, 6-(4-fluorophenyl)-2-((4-(4-methyl-1-piperazinyl)-phenyl)amino)pyrimido[5′,4′:5,6]pyrimido[1,2-a]-benzimidazol-5(6H)-one]
–	< 1000	Cc1cccc(C)c1-n1c(=O)c2cnc(Nc3ccc(N4CCN(C)CC4)cc3)nc2n2ccnc12 [No. 87, 6-(2,6-dimethylphenyl)-2-((4-(4-methyl-1-piperazinyl)phenyl)amino)imidazo[1,2-a]-pyrimido[5,4-e]pyrimidin-5(6H)-one]
–	< 1000	CN1CCN(c2ccc(Nc3ncc4c(=O)n(-c5c(F)cccc5F)c5nc6ccccc6n5c4n3)cc2)CC1 [No. 88, 6-(2,6-difluorophenyl)-2-((4-(4-methyl-1-piperazinyl)-phenyl)amino)pyrimido[5′,4′:5,6]pyrimido[1,2-a]-benzimidazol-5(6H)-one]
–	< 1000	CN1CCN(c2ccc(Nc3ncc4c(=O)n(-c5c(F)c(F)c(F)c(F)c5F)c5nc6ccccc6n5c4n3)cc2)CC1 [No. 89, 2-((4-(4-methyl-1-piperazinyl)phenyl)amino)-6-(pentafluorophenyl)pyrimido[5′,4′:5,6]pyrimido[1,2-a]benzimidazol-5(6H)-one]
